Reference: PMC5791972 (PLoS ONE, 2018)
Where two headings read alike, the source gives them in different places.

Key:
M5 (h) = target: T1, M5 (h) (Homo sapiens, UniProt P08912); assay type: binding
T1 construct: host or cells: CHO cells
T1 sequence (P08912 1-532): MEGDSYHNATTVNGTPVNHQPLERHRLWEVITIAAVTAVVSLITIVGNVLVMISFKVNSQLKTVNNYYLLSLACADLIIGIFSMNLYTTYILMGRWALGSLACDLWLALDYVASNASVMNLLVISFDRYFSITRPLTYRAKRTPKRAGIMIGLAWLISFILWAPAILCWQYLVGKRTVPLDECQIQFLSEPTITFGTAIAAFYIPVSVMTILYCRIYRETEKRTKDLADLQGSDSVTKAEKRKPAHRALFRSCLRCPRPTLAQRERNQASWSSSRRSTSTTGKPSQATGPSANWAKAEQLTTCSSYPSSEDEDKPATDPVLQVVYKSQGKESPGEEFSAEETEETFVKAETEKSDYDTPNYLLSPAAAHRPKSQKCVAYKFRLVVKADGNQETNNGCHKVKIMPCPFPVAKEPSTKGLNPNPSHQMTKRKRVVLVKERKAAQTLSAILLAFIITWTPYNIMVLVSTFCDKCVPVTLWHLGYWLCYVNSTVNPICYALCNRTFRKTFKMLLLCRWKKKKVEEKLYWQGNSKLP

α2B (h) = target: T2, α2B (h) (Homo sapiens, UniProt P18089); experiment: biochemical; assay type: binding; settings: 1.0E-06 M
T2 construct: host or cells: CHO cells
T2 sequence (P18089 1-450): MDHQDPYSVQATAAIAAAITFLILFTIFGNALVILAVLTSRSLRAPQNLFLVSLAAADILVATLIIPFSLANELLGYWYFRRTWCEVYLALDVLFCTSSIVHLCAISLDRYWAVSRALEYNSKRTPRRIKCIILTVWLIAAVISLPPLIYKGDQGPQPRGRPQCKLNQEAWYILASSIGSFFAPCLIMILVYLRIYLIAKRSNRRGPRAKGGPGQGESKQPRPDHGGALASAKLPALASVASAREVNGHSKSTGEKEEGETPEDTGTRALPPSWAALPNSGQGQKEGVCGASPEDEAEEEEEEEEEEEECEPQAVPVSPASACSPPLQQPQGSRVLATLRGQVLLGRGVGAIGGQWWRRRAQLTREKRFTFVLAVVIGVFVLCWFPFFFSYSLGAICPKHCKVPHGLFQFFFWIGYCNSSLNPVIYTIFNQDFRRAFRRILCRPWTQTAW

H1 (h) = target: T3, H1 (h) (Homo sapiens, UniProt P35367); assay type: binding; settings: 1.0E-06 M
T3 construct: host or cells: HEK-293 cells
T3 sequence (P35367 whole entry): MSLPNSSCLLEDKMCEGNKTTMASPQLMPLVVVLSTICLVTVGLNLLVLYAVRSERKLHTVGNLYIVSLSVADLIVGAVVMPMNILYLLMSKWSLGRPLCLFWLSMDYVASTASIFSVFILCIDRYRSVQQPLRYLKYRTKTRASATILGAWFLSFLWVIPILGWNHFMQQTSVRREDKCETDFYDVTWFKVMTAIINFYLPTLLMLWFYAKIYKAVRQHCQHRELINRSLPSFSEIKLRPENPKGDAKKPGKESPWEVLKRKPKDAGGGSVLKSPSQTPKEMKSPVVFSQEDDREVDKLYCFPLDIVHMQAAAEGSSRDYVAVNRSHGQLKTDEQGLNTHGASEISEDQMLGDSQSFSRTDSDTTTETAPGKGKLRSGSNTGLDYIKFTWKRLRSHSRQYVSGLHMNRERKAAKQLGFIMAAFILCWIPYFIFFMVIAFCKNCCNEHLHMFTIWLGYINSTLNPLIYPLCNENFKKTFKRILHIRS

5-HT3 (h) = target: T4, 5-HT3 (h) (Homo sapiens, UniProt P46098); experiment: biochemical
T4 sequence (P46098 24-478): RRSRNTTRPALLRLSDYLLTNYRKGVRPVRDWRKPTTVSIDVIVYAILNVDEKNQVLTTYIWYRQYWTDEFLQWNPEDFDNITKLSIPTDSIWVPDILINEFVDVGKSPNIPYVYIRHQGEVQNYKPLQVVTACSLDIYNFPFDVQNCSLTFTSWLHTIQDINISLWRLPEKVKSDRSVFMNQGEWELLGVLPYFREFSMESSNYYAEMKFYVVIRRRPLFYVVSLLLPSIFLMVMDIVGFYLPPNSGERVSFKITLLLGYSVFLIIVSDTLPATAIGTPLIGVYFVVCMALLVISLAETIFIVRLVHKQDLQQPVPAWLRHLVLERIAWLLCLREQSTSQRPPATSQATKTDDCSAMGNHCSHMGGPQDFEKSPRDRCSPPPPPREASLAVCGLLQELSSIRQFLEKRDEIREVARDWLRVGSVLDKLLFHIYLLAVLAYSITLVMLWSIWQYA

Nav1.5 = target: T5, Nav1.5 (Homo sapiens, UniProt Q14524); experiment: Ion channel selectivity patch clamp; assay type: cell-based
T5 construct: The cDNAs for various full-length ion channels were subcloned into pcDNA5/TO; expressed in transfected cells

D2S (h) = D2S (h) (Homo sapiens, UniProt P14416); assay type: binding; design: host or cells: HEK-293 cells; settings: 1.0E-06 M
Chain of D2S (h) (P14416 1-414 isoform P14416-2): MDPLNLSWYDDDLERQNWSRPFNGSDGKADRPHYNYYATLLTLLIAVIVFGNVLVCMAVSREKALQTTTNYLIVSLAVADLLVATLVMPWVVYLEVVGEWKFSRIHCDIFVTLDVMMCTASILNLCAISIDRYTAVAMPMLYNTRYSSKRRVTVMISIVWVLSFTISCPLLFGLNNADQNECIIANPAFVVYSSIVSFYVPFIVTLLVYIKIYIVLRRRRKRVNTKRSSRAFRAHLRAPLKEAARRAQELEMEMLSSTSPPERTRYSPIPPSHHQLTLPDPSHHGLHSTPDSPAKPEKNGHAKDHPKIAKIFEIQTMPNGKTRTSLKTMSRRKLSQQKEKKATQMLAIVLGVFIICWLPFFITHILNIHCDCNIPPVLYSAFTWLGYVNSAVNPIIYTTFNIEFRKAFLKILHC

D3 (h) = target: T6, D3 (h) (Homo sapiens, UniProt P35462); assay type: binding
T6 construct: host or cells: CHO cells
T6 sequence (P35462 whole entry): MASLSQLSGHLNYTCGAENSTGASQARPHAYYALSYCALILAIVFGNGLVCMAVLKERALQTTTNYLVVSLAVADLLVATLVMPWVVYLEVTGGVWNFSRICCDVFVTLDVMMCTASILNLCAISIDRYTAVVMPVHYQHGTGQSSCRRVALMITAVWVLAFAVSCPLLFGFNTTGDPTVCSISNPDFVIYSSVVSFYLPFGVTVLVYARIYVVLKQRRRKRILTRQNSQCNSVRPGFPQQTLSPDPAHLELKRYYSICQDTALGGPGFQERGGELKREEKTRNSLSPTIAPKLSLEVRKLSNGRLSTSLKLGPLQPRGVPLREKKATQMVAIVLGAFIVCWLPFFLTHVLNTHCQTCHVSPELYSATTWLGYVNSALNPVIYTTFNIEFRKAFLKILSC

D1 (h) = target: T7, D1 (h) (Homo sapiens, UniProt P21728); assay type: binding
T7 construct: host or cells: CHO cells
T7 sequence (P21728 whole entry): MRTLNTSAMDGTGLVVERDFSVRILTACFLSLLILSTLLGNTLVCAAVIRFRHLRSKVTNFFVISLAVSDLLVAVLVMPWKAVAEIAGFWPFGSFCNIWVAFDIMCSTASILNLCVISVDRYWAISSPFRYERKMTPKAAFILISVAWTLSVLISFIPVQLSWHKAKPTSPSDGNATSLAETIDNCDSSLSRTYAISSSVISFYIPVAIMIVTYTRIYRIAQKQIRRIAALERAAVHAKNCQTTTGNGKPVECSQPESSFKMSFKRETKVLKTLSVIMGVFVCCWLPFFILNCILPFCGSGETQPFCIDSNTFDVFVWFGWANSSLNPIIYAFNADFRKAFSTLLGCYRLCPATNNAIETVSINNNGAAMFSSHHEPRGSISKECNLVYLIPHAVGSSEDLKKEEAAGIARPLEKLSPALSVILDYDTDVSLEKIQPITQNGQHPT

5-HT2C (h) = target: T8, 5-HT2C (h) (Homo sapiens, UniProt P28335); assay type: binding; settings: 1 h, 1.0E-06 M
T8 construct: host or cells: HEK-293 cells
T8 sequence (P28335 33-458): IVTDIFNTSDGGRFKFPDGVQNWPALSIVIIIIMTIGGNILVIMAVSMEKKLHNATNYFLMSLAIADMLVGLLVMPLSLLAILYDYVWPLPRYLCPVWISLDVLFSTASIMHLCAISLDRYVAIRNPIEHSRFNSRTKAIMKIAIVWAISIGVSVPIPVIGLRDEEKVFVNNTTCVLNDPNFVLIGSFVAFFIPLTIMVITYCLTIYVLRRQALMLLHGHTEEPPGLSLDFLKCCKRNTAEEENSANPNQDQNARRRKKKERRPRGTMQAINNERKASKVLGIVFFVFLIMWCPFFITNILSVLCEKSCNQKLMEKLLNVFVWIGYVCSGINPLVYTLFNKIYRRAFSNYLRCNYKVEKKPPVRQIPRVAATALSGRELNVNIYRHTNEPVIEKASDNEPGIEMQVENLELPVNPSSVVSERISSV

Cav1.2 = Cav1.2 (Homo sapiens, UniProt Q13936); experiment: Ion channel selectivity patch clamp
hTRPV1 = target: T9, hTRPV1 (Homo sapiens, UniProt Q8NER1); experiment: Ion channel selectivity patch clamp; assay type: cell-based
T9 construct: The cDNAs for various full-length ion channels were subcloned into pcDNA5/TO; expressed in transfected cells; host or cells: T-REx-293 (general cell paragraph)
T9 sequence (Q8NER1 whole entry): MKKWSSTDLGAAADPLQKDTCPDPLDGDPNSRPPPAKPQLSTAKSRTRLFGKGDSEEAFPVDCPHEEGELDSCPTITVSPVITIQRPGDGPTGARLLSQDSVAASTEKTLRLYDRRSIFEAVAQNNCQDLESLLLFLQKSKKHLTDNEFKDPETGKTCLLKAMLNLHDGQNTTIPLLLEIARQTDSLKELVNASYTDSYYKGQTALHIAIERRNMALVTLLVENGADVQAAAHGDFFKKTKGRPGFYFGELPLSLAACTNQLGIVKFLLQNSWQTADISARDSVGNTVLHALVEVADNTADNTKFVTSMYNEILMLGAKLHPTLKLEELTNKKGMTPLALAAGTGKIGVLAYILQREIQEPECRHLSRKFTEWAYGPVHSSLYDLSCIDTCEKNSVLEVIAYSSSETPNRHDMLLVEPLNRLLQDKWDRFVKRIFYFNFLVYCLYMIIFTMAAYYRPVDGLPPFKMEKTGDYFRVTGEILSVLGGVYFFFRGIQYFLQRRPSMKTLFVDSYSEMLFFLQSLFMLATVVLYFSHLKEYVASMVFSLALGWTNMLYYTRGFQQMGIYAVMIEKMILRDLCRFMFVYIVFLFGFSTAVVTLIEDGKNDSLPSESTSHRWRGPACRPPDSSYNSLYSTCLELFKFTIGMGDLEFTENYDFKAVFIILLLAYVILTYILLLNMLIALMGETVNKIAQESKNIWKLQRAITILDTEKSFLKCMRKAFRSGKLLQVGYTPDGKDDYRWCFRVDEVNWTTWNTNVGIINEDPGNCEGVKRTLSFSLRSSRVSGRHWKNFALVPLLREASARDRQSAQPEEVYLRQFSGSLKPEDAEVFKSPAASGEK

5-HT transporter (h) = target: T10, 5-HT transporter (h) (Homo sapiens, UniProt P31645); assay type: binding; settings: 1 h
T10 construct: host or cells: CHO cells
T10 sequence (P31645 whole entry): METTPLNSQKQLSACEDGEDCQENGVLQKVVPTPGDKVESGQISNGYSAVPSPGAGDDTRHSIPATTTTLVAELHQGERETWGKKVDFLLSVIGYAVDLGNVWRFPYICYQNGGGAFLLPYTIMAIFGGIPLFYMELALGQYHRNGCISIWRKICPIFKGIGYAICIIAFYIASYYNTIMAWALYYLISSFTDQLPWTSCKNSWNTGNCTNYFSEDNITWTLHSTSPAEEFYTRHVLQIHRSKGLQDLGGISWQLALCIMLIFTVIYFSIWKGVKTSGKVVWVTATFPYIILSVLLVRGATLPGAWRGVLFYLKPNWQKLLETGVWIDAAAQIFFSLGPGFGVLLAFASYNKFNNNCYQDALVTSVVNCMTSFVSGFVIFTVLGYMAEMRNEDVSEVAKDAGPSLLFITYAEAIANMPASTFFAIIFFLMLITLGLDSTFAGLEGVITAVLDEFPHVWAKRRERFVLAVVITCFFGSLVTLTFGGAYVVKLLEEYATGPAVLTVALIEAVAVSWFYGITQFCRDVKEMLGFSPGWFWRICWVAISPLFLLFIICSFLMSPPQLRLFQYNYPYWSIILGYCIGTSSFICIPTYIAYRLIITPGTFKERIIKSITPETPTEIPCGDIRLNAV

`Cn1c(=O)n(CCCO)c(=O)c2c1nc(Oc1cccc(Cl)c1)n2Cc1ccc(Cl)cc1` [HC-070] showed an inhibition at 1 µM (M5 (h); read-out: % Inhibition 1st) of -7.3%, an inhibition at 1 µM (M5 (h); read-out: % Inhibition 2nd) of 10.1% and an inhibition at 1 µM (M5 (h); read-out: % Inhibition Mean) of 1.4%. For the same compound, the inhibition at 1 µM (α2B (h); read-out: % Inhibition 1st) was -22.3%, the inhibition at 1 µM (α2B (h); read-out: % Inhibition 2nd) was -1.2% and the inhibition at 1 µM (α2B (h); read-out: % Inhibition Mean) was -11.7%. It also gave an inhibition at 1 µM (H1 (h); read-out: % Inhibition 1st) of -15.6%, an inhibition at 1 µM (H1 (h); read-out: % Inhibition 2nd) of -11.4% and an inhibition at 1 µM (H1 (h); read-out: % Inhibition Mean) of -13.5%. For the same compound, the inhibition at 1 µM (5-HT3 (h); read-out: % Inhibition 1st) was 4.7%, the inhibition at 1 µM (5-HT3 (h); read-out: % Inhibition 2nd) was 2.6% and the inhibition at 1 µM (5-HT3 (h); read-out: % Inhibition Mean) was 3.7%. For the same compound, the IC50 (Nav1.5) was greater than 1.9 µM, the inhibition at 1 µM (D2S (h); read-out: % Inhibition 1st) was -3% and the inhibition at 1 µM (D2S (h); read-out: % Inhibition 2nd) was 3.4%. It also gave an inhibition at 1 µM (D2S (h); read-out: % Inhibition Mean) of 0.2%, an inhibition at 1 µM (D3 (h); read-out: % Inhibition 1st) of 3.6% and an inhibition at 1 µM (D3 (h); read-out: % Inhibition 2nd) of 6.4%. For the same compound, the inhibition at 1 µM (D3 (h); read-out: % Inhibition Mean) was 5%, the inhibition at 1 µM (D1 (h); read-out: % Inhibition 1st) was 3% and the inhibition at 1 µM (D1 (h); read-out: % Inhibition 2nd) was -4.8%. It also gave an inhibition at 1 µM (D1 (h); read-out: % Inhibition Mean) of -0.9%, an inhibition at 1 µM (5-HT2C (h); read-out: % Inhibition 1st) of -13.4% and an inhibition at 1 µM (5-HT2C (h); read-out: % Inhibition 2nd) of -9.5%. It also gave an inhibition at 1 µM (5-HT2C (h); read-out: % Inhibition Mean) of -11.5%, an IC50 (Cav1.2) greater than 1.9 µM and an IC50 (hTRPV1; 500 nM Capsaicin, read-out: IC50) greater than 1.9 µM. The inhibition at 1 µM (5-HT transporter (h); read-out: % Inhibition 1st) was -0.3%, the inhibition at 1 µM (5-HT transporter (h); read-out: % Inhibition 2nd) was 18.4% and the inhibition at 1 µM (5-HT transporter (h); read-out: % Inhibition Mean) was 9.1%.

In the case of `Cn1c(=O)n(CCCO)c(=O)c2c1nc(Oc1cccc(OC(F)(F)F)c1)n2Cc1ccc(Cl)cc1` [HC-608], the inhibition at 1 µM (M5 (h); read-out: % Inhibition 1st) is reported as -15.6%, the inhibition at 1 µM (M5 (h); read-out: % Inhibition 2nd) is reported as -12.8% and the inhibition at 1 µM (M5 (h); read-out: % Inhibition Mean) is reported as -14.2%. The inhibition at 1 µM (α2B (h); read-out: % Inhibition 1st) was -7.4%, the inhibition at 1 µM (α2B (h); read-out: % Inhibition 2nd) was -0.7% and the inhibition at 1 µM (α2B (h); read-out: % Inhibition Mean) was -4%. It also gave an inhibition at 1 µM (H1 (h); read-out: % Inhibition 1st) of -8.1%, an inhibition at 1 µM (H1 (h); read-out: % Inhibition 2nd) of -0.9% and an inhibition at 1 µM (H1 (h); read-out: % Inhibition Mean) of -4.5%. The inhibition at 1 µM (5-HT3 (h); read-out: % Inhibition 1st) was -4.1%, the inhibition at 1 µM (5-HT3 (h); read-out: % Inhibition 2nd) was 9.5% and the inhibition at 1 µM (5-HT3 (h); read-out: % Inhibition Mean) was 2.7%. The IC50 (Nav1.5) was greater than 1.64 µM, the inhibition at 1 µM (D2S (h); read-out: % Inhibition 1st) was 4.6% and the inhibition at 1 µM (D2S (h); read-out: % Inhibition 2nd) was 0.2%. For the same compound, the inhibition at 1 µM (D2S (h); read-out: % Inhibition Mean) was 2.4%, the inhibition at 1 µM (D3 (h); read-out: % Inhibition 1st) was 4% and the inhibition at 1 µM (D3 (h); read-out: % Inhibition 2nd) was 9.7%. The inhibition at 1 µM (D3 (h); read-out: % Inhibition Mean) was 6.9%, the inhibition at 1 µM (D1 (h); read-out: % Inhibition 1st) was 1.1% and the inhibition at 1 µM (D1 (h); read-out: % Inhibition 2nd) was 5%. The inhibition at 1 µM (D1 (h); read-out: % Inhibition Mean) was 3.1%, the inhibition at 1 µM (5-HT2C (h); read-out: % Inhibition 1st) was -8.5% and the inhibition at 1 µM (5-HT2C (h); read-out: % Inhibition 2nd) was -4.7%. For the same compound, the inhibition at 1 µM (5-HT2C (h); read-out: % Inhibition Mean) was -6.6%, the IC50 (Cav1.2) was greater than 1.64 µM and the IC50 (hTRPV1) was greater than 1.64 µM. The inhibition at 1 µM (5-HT transporter (h); read-out: % Inhibition 1st) was -6.2%, the inhibition at 1 µM (5-HT transporter (h); read-out: % Inhibition 2nd) was 4.6% and the inhibition at 1 µM (5-HT transporter (h); read-out: % Inhibition Mean) was -0.8%.
